Test results from US9738660B2, “Selective inhibitors for protein kinases and pharmaceutical composition and use thereof” (National Chiao Tung University, priority 2014, dated 2017).
Like-named read-outs stand apart in the source and are kept apart here.

Columns and labels:
Assay in all cases: Kinase Profiler, residual kinase activity
Type in all cases: biochemical
Settings in all cases: read-out: percentage of the remaining kinase activity
CLK1 = CLK1 (Homo sapiens, UniProt P49759)
Text: (§1) Kinase Profiler services provided by […]. (http://www.reactionbiology.com) were used to analyze the data of the 9 type-S protein kinase inhibitors against the 40 types of protein kinases.

LIMK1 = LIMK1 (Homo sapiens, UniProt P53667)
Text: as §1

AXL = molecular target: T1, AXL (Homo sapiens, UniProt P30530)
T1 construct: purchased Research Biology Corp. (http://www.reactionbiology.com)
T1 sequence (P30530 26-894): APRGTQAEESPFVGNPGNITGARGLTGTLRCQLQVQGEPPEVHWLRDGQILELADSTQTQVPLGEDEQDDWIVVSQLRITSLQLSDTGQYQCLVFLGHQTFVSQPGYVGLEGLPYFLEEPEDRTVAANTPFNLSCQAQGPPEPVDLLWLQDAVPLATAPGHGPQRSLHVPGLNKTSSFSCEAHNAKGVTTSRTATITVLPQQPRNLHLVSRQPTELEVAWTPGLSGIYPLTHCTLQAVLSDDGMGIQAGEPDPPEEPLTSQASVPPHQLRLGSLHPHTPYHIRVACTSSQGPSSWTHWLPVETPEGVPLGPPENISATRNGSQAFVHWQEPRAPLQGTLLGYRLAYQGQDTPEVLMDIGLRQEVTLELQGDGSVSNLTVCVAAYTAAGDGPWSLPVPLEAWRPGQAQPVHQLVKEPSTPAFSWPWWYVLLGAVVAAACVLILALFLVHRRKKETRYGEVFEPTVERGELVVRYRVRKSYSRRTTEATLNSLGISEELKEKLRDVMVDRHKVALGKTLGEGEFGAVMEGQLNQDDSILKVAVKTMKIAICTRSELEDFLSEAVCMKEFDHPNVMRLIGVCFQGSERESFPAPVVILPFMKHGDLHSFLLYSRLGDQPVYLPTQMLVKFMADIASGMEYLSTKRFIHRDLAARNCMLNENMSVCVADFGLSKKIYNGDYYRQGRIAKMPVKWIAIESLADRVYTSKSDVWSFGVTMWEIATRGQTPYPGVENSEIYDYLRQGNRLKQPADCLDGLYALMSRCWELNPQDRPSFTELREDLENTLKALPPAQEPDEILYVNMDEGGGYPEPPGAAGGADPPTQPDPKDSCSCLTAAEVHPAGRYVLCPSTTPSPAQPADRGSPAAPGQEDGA
Text: as §1

KDR = KDR (Homo sapiens, UniProt P35968)
Text: as §1

AKT1 = AKT1 (Homo sapiens, UniProt P31749)
Chain of AKT1 (P31749 whole entry): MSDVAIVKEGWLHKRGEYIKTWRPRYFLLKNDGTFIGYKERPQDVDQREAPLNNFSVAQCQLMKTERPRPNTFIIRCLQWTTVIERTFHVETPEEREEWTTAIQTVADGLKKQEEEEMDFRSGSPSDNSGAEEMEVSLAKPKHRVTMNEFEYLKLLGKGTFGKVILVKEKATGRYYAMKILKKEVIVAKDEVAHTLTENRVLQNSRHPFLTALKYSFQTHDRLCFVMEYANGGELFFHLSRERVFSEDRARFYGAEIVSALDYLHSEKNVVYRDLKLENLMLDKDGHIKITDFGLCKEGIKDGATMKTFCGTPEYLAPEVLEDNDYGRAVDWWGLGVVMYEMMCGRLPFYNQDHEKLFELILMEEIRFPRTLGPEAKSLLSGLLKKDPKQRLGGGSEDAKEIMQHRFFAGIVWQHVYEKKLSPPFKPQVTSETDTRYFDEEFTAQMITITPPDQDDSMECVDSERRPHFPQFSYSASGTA
Text: as §1

PAK4 = PAK4 (Homo sapiens, UniProt O96013)
Chain of PAK4 (O96013 whole entry): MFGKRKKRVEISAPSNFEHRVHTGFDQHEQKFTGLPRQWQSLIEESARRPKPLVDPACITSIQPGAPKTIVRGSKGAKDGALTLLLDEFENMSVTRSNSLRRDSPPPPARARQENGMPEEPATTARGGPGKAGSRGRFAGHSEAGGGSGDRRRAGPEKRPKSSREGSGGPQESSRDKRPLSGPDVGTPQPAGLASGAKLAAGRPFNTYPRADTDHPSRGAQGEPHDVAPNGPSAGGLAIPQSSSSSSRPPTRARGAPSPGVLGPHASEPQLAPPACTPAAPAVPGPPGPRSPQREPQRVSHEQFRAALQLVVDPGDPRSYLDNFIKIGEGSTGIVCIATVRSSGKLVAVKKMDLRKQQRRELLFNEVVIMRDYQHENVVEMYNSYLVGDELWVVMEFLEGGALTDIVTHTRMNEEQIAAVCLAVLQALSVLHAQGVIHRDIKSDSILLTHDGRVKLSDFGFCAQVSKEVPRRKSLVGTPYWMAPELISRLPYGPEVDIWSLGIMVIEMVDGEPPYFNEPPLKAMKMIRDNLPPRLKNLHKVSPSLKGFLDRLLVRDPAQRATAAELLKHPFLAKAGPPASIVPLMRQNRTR
Text: as §1

RET = RET (Homo sapiens, UniProt P07949)
Chain of RET (P07949 29-1114): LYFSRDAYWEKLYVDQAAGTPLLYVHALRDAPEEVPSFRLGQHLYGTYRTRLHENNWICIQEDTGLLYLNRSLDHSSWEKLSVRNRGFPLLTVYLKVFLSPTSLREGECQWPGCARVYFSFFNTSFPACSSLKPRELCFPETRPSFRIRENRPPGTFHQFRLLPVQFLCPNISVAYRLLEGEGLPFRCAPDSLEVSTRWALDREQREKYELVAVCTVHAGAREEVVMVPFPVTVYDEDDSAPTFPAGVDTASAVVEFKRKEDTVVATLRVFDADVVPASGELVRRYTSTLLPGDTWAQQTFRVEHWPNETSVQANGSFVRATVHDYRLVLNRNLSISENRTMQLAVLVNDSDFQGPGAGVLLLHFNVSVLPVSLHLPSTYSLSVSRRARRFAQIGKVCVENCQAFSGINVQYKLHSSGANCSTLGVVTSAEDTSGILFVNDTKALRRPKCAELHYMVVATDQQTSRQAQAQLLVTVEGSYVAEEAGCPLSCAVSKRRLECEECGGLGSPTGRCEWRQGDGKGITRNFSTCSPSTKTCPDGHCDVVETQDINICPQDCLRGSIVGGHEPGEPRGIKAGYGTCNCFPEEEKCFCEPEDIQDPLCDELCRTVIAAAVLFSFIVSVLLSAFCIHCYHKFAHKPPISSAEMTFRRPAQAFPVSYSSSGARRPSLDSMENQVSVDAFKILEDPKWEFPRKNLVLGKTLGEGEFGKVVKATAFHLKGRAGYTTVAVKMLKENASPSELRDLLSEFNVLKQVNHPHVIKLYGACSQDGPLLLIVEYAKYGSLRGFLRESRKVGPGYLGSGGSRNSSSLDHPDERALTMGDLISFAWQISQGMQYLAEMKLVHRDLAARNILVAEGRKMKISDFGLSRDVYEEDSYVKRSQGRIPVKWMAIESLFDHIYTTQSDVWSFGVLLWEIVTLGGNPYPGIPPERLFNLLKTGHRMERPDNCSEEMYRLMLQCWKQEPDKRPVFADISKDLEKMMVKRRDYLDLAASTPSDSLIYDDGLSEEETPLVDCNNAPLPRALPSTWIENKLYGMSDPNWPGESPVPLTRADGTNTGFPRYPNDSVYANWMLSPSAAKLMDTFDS
Text: as §1

PDPK1 = molecular target: T2, PDPK1 (Homo sapiens, UniProt O15530)
T2 sequence (O15530 1-556): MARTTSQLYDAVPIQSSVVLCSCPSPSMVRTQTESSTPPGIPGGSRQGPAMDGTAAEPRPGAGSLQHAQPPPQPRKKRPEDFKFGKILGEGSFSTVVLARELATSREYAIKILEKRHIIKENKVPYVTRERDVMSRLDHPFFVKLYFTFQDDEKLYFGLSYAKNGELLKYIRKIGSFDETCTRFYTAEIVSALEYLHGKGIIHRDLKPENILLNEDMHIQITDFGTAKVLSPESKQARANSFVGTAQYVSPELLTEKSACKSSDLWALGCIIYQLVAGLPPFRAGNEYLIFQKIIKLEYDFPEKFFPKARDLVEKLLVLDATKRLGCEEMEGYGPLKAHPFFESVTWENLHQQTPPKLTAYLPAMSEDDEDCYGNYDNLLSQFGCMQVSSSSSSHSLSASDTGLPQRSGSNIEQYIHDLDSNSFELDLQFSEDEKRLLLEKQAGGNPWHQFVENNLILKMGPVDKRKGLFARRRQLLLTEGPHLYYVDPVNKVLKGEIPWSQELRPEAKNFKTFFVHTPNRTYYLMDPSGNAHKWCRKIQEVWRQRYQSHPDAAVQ
Text: as §1

JAK2 = JAK2 (Homo sapiens, UniProt O60674)
Chain of JAK2 (O60674 whole entry): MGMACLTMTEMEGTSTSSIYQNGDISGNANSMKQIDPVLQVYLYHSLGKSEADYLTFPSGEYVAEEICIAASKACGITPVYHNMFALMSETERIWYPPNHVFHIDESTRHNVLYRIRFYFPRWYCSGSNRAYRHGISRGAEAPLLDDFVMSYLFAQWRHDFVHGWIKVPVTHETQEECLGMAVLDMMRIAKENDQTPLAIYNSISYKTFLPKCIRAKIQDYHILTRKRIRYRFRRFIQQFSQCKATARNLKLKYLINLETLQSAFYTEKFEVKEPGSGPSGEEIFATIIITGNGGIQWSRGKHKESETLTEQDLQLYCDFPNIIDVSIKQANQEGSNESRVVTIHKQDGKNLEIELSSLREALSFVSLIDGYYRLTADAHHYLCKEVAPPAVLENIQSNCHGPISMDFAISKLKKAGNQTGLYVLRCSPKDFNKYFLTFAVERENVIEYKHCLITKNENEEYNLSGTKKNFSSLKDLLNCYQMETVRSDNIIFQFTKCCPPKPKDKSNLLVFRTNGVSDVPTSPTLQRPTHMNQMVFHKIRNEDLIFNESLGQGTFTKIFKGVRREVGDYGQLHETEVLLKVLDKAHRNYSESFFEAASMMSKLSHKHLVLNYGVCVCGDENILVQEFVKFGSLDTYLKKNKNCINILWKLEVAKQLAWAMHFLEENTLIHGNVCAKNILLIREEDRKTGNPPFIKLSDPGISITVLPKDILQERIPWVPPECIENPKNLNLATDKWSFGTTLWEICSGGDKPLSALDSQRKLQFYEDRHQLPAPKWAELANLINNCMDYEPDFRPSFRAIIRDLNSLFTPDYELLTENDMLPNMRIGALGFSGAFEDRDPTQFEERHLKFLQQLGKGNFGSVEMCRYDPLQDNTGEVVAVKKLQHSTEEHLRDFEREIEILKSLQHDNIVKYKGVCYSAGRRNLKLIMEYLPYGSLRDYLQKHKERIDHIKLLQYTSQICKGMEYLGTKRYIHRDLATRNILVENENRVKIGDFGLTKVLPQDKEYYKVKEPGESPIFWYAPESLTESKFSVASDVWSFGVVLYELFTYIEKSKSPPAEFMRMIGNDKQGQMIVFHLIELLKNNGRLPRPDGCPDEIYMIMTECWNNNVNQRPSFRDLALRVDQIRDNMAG
Text: as §1

BTK = BTK (Homo sapiens, UniProt Q06187)
Chain of BTK (Q06187 whole entry): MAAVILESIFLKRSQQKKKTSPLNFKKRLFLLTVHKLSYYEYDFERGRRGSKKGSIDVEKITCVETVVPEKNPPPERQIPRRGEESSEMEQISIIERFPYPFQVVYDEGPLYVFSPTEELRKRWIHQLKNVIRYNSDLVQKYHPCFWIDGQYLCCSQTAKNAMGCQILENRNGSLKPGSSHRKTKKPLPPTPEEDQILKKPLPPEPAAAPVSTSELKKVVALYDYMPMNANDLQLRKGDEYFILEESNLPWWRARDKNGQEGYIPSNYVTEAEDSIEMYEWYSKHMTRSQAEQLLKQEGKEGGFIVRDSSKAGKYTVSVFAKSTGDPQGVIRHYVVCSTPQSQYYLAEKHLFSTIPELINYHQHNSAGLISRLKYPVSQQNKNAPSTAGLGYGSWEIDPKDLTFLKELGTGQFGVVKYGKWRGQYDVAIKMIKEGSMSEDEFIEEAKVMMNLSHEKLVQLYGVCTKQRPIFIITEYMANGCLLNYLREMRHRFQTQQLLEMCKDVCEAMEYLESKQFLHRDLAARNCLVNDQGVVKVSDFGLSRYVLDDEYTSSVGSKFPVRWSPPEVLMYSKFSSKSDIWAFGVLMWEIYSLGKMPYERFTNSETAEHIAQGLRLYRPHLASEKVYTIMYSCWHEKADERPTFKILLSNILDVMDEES
Text: as §1

STK4 = molecular target: T3, STK4 (Homo sapiens, UniProt Q13043)
T3 construct: purchased Research Biology Corp. (http://www.reactionbiology.com)
T3 sequence (Q13043 1-487): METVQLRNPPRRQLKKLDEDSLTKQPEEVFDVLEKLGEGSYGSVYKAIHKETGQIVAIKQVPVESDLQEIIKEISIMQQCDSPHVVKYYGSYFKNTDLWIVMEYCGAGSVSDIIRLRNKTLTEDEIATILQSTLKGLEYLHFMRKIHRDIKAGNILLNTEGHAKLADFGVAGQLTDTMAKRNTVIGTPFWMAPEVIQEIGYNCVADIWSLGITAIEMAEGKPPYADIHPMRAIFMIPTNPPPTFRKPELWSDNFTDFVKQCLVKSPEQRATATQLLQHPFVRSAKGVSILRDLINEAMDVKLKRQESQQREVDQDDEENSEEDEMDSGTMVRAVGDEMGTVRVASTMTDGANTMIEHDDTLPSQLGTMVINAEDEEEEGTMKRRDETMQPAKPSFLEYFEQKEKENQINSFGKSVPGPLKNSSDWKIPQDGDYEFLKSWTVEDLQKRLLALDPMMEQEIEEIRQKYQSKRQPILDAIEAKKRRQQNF
Text: as §1

DYRK1A = DYRK1A (Homo sapiens, UniProt Q13627)
Text: as §1

Chain of CLK1 (P49759 whole entry): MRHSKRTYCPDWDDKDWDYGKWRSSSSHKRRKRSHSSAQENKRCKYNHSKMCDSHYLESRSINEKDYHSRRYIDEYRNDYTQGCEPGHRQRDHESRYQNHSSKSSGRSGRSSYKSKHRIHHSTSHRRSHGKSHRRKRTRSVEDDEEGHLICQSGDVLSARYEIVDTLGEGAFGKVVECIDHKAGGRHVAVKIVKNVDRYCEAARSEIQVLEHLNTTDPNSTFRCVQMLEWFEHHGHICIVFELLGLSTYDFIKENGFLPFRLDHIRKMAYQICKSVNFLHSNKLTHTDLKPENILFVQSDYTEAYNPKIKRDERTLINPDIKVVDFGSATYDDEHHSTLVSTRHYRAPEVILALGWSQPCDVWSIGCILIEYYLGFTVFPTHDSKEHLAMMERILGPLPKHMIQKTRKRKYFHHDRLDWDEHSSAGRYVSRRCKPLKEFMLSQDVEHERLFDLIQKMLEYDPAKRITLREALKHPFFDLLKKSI

SMILES | remaining activity at 0.5 µM (CLK1; CLK1, inhibitor at 500 nM) | remaining activity at 0.5 µM (LIMK1; LIMK1, inhibitor at 500 nM) | remaining activity at 0.5 µM (AXL; AXL, inhibitor at 500 nM) | remaining activity at 0.5 µM (KDR; KDR, inhibitor at 500 nM) | remaining activity at 0.5 µM (AKT1; AKT1, inhibitor at 500 nM) | remaining activity at 0.5 µM (PAK4; PAK4, inhibitor at 500 nM) | remaining activity at 0.5 µM (RET; RET, inhibitor at 500 nM) | remaining activity at 0.5 µM (PDPK1; PDPK1, inhibitor at 500 nM) | remaining activity at 0.5 µM (JAK2; JAK2, inhibitor at 500 nM) | remaining activity at 0.5 µM (BTK; BTK, inhibitor at 500 nM) | remaining activity at 0.5 µM (STK4; STK4, inhibitor at 500 nM) | remaining activity at 0.5 µM (DYRK1A; DYRK1A, inhibitor at 500 nM) | further results
COC1C(N(C)CCOc2cccc([N+](=O)[O-])c2)CC2OC1(C)n1c3ccccc3c3c4c(c5c6ccccc6n2c5c31)C(=O)NC4 (stereo not drawn) [Compound 8] | – | – | – | – | – | – | – | – | – | – | – | – | remaining activity at 0.5 µM (CLK1): 74.8%; remaining activity at 0.5 µM (LIMK1): 49.9%; remaining activity at 0.5 µM (AXL): 46.3%; remaining activity at 0.5 µM (KDR): 43.3%; remaining activity at 0.5 µM (AKT1): 52.3%; remaining activity at 0.5 µM (PAK4): 99.9%; remaining activity at 0.5 µM (RET): 16.2%; remaining activity at 0.5 µM (PDPK1): 4.7%; remaining activity at 0.5 µM (JAK2): 5.2%; remaining activity at 0.5 µM (BTK): 53.9%; remaining activity at 0.5 µM (STK4): 2.7%; remaining activity at 0.5 µM (DYRK1A): 25.3%
COC1C(N(C)C(=O)C(N)CCC(=O)O)CC2OC1(C)n1c3ccccc3c3c4c(c5c6ccccc6n2c5c31)C(=O)NC4 (stereo not drawn) [Compound 7] | 32.3% | 1.4% | 26.8% | 5.4% | 31.5% | 38.4% | 1.6% | 0.5% | 1.5% | 11.9% | 1.9% | 0.6% | –
COC1C(N(C)C(=O)C(N)Cc2ccc(O)cc2)CC2OC1(C)n1c3ccccc3c3c4c(c5c6ccccc6n2c5c31)C(=O)NC4 (stereo not drawn) [Compound 5] | 29.6% | 46.9% | 60.3% | 16.3% | 66.8% | 53.3% | 21.3% | 2% | 19.4% | 37.8% | 5.5% | 0.6% | –
COC1C(N(C)C(=O)C(N)Cc2cn(C(=O)OC(C)(C)C)c3ccccc23)CC2OC1(C)n1c3ccccc3c3c4c(c5c6ccccc6n2c5c31)C(=O)NC4 (stereo not drawn) [Compound 2] | 107% | 103% | 100% | 102% | 97.6% | 110% | 101% | 81% | 70% | 90.6% | 72.8% | 88.6% | –
COC1C(N(C)C(=O)C(N)Cc2c[nH]cn2)CC2OC1(C)n1c3ccccc3c3c4c(c5c6ccccc6n2c5c31)C(=O)NC4 (stereo not drawn) [Compound 1] | 15.9% | 18.8% | 35.4% | 6.5% | 19.6% | 40.2% | 6% | 0.5% | 4.4% | 13.9% | 1.8% | 0.4% | –
